# Data from the supplement of paper PMC10307832.
# How the values were obtained:
# Assay in all cases: relative viability (nuclei count vs DMSO), 5 days (fraction); higher = more cells survive
# Quizartinib + Bortezomib = compound: CC(C)(C)c1cc(NC(=O)Nc2ccc(-c3cn4c(n3)sc3cc(OCCN5CCOCC5)ccc34)cc2)no1 [Quizartinib] + CC(C)C[C@H](NC(=O)[C@H](Cc1ccccc1)NC(=O)c1cnccn1)B(O)O [Bortezomib] (partner 0.002 µM)
# Method in brief: (§1)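 Values are medians from duplicate plates. Each reflects relative viability, defined as the nuclei count of treated wells over that of vehicle wells. Lung cancer cell lines in 1536-well plates were pin-tool dosed one day after seeding with one drug alone or with a fixed anchor-drug dose plus five library-drug doses (not always all listed) in √10 steps, then fixed, stained and imaged at 4× after 5 days.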
# Quizartinib + Pictilisib = compound: CC(C)(C)c1cc(NC(=O)Nc2ccc(-c3cn4c(n3)sc3cc(OCCN5CCOCC5)ccc34)cc2)no1 [Quizartinib] + CS(=O)(=O)N1CCN(Cc2cc3nc(-c4cccc5[nH]ncc45)nc(N4CCOCC4)c3s2)CC1 [Pictilisib] (partner 1 µM)
# Method in brief: as §1
# Quizartinib + Olaparib = compound: CC(C)(C)c1cc(NC(=O)Nc2ccc(-c3cn4c(n3)sc3cc(OCCN5CCOCC5)ccc34)cc2)no1 [Quizartinib] + O=C(c1cc(Cc2n[nH]c(=O)c3ccccc23)ccc1F)N1CCN(C(=O)C2CC2)CC1 [Olaparib] (partner 8 µM)
# Method in brief: as §1
# YM155 + Dasatinib = compound: COCC[n+]1c2c(n(Cc3cnccn3)c1C)C(=O)c1ccccc1C2=O [YM155] + Cc1nc(Nc2ncc(C(=O)Nc3c(C)cccc3Cl)s2)cc(N2CCN(CCO)CC2)n1 [Dasatinib] (partner 0.075 µM)
# Method in brief: as §1
Cell Line,relative viability (Quizartinib + Bortezomib; first compound 0.001 µM),relative viability (Quizartinib + Bortezomib; first compound 0.003162 µM),relative viability (Quizartinib + Bortezomib; first compound 0.01 µM),relative viability (Quizartinib + Bortezomib; first compound 0.03162 µM),relative viability (Quizartinib + Bortezomib; first compound 0.1 µM),relative viability (Quizartinib + Pictilisib; first compound 0.001 µM),relative viability (Quizartinib + Pictilisib; first compound 0.003162 µM),relative viability (Quizartinib + Pictilisib; first compound 0.01 µM),relative viability (Quizartinib + Pictilisib; first compound 0.03162 µM),relative viability (Quizartinib + Pictilisib; first compound 0.1 µM),relative viability (Quizartinib + Olaparib; first compound 0.001 µM),relative viability (Quizartinib + Olaparib; first compound 0.003162 µM),relative viability (Quizartinib + Olaparib; first compound 0.01 µM),relative viability (Quizartinib + Olaparib; first compound 0.03162 µM),relative viability (Quizartinib + Olaparib; first compound 0.1 µM),relative viability (YM155 + Dasatinib; first compound 0.002 µM),relative viability (YM155 + Dasatinib; first compound 0.006325 µM),relative viability (YM155 + Dasatinib; first compound 0.02 µM),relative viability (YM155 + Dasatinib; first compound 0.06325 µM)
HCC-78,0.435,0.477,0.546,0.511,0.448,0.21,0.185,0.206,0.0784,0.216,0.732,0.753,0.899,0.706,0.92,0.313,0.487,0.477,0.47
HCC-366,0.989,0.974,1.13,0.967,1.01,–,0.138,0.103,0.137,0.138,0.324,0.369,0.332,0.328,0.389,0.578,0.653,0.685,0.581
HCC-827,0.998,1.11,1.02,1.06,1.01,0.93,1.01,1.14,0.983,0.908,0.653,0.556,–,0.616,0.697,0.337,0.262,0.308,0.345
HOP-62,0.564,0.72,0.73,0.517,0.749,0.377,0.7,0.692,0.831,0.835,–,0.322,0.54,0.619,0.449,0.673,0.64,0.706,0.646
IA-LM,0.774,0.738,0.885,0.812,0.736,0.356,0.299,0.397,0.231,0.342,0.908,0.796,0.851,0.75,0.74,–,–,–,–
LC-2-ad,0.955,0.954,1.11,1.06,0.996,0.398,0.516,0.351,0.323,0.276,0.697,0.635,0.757,0.747,0.86,0.529,0.547,0.674,0.649
LCLC-97TM1,–,0.689,0.811,–,0.527,–,0.144,0.223,0.148,0.218,0.333,0.332,0.406,0.467,0.417,0.761,0.954,0.739,0.835
LCLC-103H,0.871,1.01,0.994,1,1.12,0.535,0.733,0.591,0.547,0.546,0.691,0.718,0.789,0.769,0.819,0.446,0.456,0.474,0.531
LK-2,–,–,–,–,–,0.594,0.474,0.826,0.526,0.55,0.536,0.772,0.685,0.583,0.644,0.275,0.271,0.266,0.294
NCI-H358,–,–,–,–,–,0.297,0.332,0.305,–,0.315,0.548,0.6,0.585,–,0.67,0.139,0.145,0.161,0.156
NCI-H522,–,–,–,–,–,–,–,–,–,–,0.61,0.764,0.716,0.6,0.783,0.877,0.818,0.915,0.9
NCI-H1299,–,0.985,1.01,1.02,1.04,0.835,0.735,0.797,0.726,0.881,0.949,0.967,0.987,0.995,0.984,–,–,–,–
NCI-H1395,–,–,–,–,–,0.478,0.65,0.661,0.695,0.667,0.476,0.455,0.489,0.444,0.512,0.359,0.423,0.388,0.444
NCI-H1563,0.968,0.833,0.791,–,0.84,0.719,0.68,0.649,–,0.626,–,–,–,–,–,0.382,0.541,0.453,0.475
NCI-H1648,–,–,–,–,–,–,–,–,–,–,–,0.985,–,0.604,0.909,–,–,–,–
NCI-H1703,0.418,0.269,0.16,0.18,0.256,0.3,0.183,0.216,0.154,0.24,0.488,0.306,0.2,0.166,0.307,–,–,–,–
NCI-H1793,–,–,–,–,–,0.304,0.398,0.249,0.362,0.334,0.765,0.684,0.855,0.808,0.835,0.366,0.443,0.338,0.34
NCI-H1944,–,–,–,–,–,0.347,0.327,0.319,0.322,0.31,0.442,0.374,0.396,0.425,0.385,0.201,0.202,0.208,0.24
NCI-H2170,–,–,–,–,–,0.388,0.327,0.308,0.42,0.321,0.567,0.681,0.656,0.584,0.54,0.485,0.628,0.572,0.625
NCI-H2342,–,–,–,–,–,–,–,–,–,–,0.415,0.474,0.51,0.388,0.395,0.308,0.336,0.329,0.301
SK-MES-1,–,–,–,–,–,0.244,0.329,0.391,0.363,0.365,0.685,0.678,0.805,–,0.732,0.447,0.34,0.332,0.154
SW 900,–,–,–,–,–,–,–,–,–,–,0.803,0.871,0.968,0.921,0.885,0.443,0.523,0.845,0.666
